We go through 14 molecules from publication PMC4444084, “An Antioxidant Extract of the Insectivorous Plant Drosera burmannii Vahl. Alleviates Iron-Induced Oxidative Stress and Hepatic Injury in Mice” (PLoS ONE, 2015).

Data set [1] in a line: Hydroxyl radical scavenging. Format: biochemical. The procedure:
(§1) The ROS scavenging ability of DBME was determined using multiple stable ROS radical scavenging assays, such as hydroxyl, superoxide, hypochlorous radical, singlet oxygen and hydrogen peroxide assays by standard procedures.

Another data set can be described thus: WST-1 cytotoxicity assay. Format: cell-based, human. As to conditions: human, WI-38 human lung fibroblast cells, WI-38 cells, WST-1. The procedure: (§2) The human lung fibroblast (WI-38) cell line was purchased from the National Centre for Cell Science (NCCS), India. Cells were grown in DMEM supplemented with 10% (v/v) fetal bovine serum (FBS), 100 U/ml penicillin G, 50 μg/ml gentamycin sulfate, 100 μg/ml streptomycin and 2.5 μg/ml amphotericin B. The cell line was maintained in a CO2 incubator at 37°C in a humidified atmosphere containing 5% CO2. Cell proliferation and cell viability were quantified using the WST-1 Cell Proliferation Reagent, Roche diagnostics, according to previously described methods. […] Briefly, WI-38 cells (1 × 10^4 cells/well) were treated with DBME, purpurin, catechin, tannic acid, reserpine, methyl gallate or rutin at doses ranging from 0–120 μg/ml for 48 hours in 96-well culture plates. After treatment, 10 μl of the WST-1 cell proliferation reagent was added to each well followed by 2 hours of incubation at 37°C. Cell proliferation and viability were quantified by measuring the absorbance at 460 nm using a microplate ELISA reader […] EX (Thermo Electron Corporation, USA).

The next data set deals with WI-38 cells. As to the kind of experiment: WST-1 cytotoxicity assay. It counts as cell-based, human. As to conditions: 48 hours; for cytotoxicity against normal cells (in words): 0-120 μg/ml; for Cytotoxicity assay IC50: WST-1. The method, then:
as §2

A short description of data set [2]: Iron chelation assay (Fe2+-ferrozine complex formation). Format: biochemical. The conditions noted are these: for in vitro iron chelation ability (in words): Fe2+-ferrozine complex; for Iron chelating activity IC50: Fe2+-ferrozine, HEPES pH 7.2. The procedure: The Fe^2+ chelating activity of DBME, catechin, methyl gallate, purpurin, reserpine, rutin and tannic acid was evaluated according to standard methods. HEPES buffer (20 mM, pH 7.2), DBME (0–120 μg/ml) and a positive control EDTA (0–20 μg/ml) were separately added to a 12.5 μM ferrous sulfate solution, and 75 μM ferrozine was added to start the reaction. The mixture was shaken vigorously and left standing for 20 min at room temperature. Next, the absorbance was measured at 562 nm. All tests were performed six times.

Data set [3] can be described thus: Hydrogen peroxide scavenging. Format: biochemical. The method, then:
as §1

Data set [4] in a line: Superoxide anion scavenging. Format: biochemical. The procedure: as §1
Data set [5] in a line: Singlet oxygen scavenging. Format: biochemical. The procedure: as §1
Data set [6] can be described thus: Hypochlorous acid scavenging. It counts as biochemical. The method, then:
as §1

Data set [7] can be described thus: DPPH radical scavenging assay. Format: biochemical. The procedure: The total antioxidant capacity of DBME was evaluated by an ABTS•^+ radical cation decolorization assay in comparison to a trolox standard and 2,2-diphenyl-1-picrylhydrazyl (DPPH) radical scavenging assay. The reducing power of DBME was determined using a previously described method.
A further data set in a line: Peroxynitrite scavenging. It counts as biochemical. The method, then:
The RNS scavenging activity of DBME was determined using nitric oxide and peroxynitrite radical scavenging assays.

The test system of data set [8] is iron overloaded mice. As to the kind of experiment: Serum markers (ALAT, ASAT, ALP, bilirubin) in iron overloaded mice. The conditions noted are these: D: desirox 20 mg/kg b.w. oral 21 days. It counts as in vivo, Swiss albino mice. The method, then:
(§3) Mice were divided into six groups of six mice each. One group was labeled as blank (B) and received normal saline. The other five groups received five intraperitoneal injections of iron-dextran at a dose of 100 mg/kg b.w. (one dose every two days). One iron-dextran group (C) was administered normal saline, and the other four groups were orally treated with either 50 mg/kg b.w. (S50), 100 mg/kg b.w. (S100), 200 mg/kg b.w. (S200) DBME or 20 mg/kg b.w. desirox (D) for 21 days beginning on the day following the first iron-dextran injection.
(§4) After treatment, mice were fasted overnight on the 21st day and anesthetized with ethyl ether. Blood was collected by cardiac puncture. Serum from the blood samples was separated using a cooling centrifuge and stored at -80°C until analysis. The liver was washed with ice-cold saline and divided into three parts. One major portion of the liver was cut, weighed and homogenized in 10 volumes of 0.1 M phosphate buffer (pH 7.4) containing 5 mM EDTA and 0.15 M NaCl. The sample was centrifuged at 8,000 g for 30 min at 4°C. The protein concentration in the supernatant was estimated according to Lowry's method using BSA as a standard. The remaining samples were stored at -80°C until further analysis. Another portion of the liver was weighed and digested using an equivolume mixture of sulfuric acid and nitric acid for iron content analysis. A final liver sample was used for histopathological studies.
Alanine amino transferase (ALAT), aspartate amino transferase (ASAT), and bilirubin levels were measured in serum samples using commercial kits from Merck, Mumbai, India. Serum alkaline phosphatase (ALP) was estimated using a kit supplied by Sentinel diagnostics, Italy. The serum ferritin level was measured using an enzyme-linked immunosorbent assay (Monobind Inc., USA) according to the manufacturer’s instructions.

For data set [9], the system named is iron overloaded mice. As to the kind of experiment: Liver antioxidants (SOD, CAT, GST, GSH) in iron overloaded mice. As to conditions: D: desirox 20 mg/kg b.w. oral 21 days. It counts as in vivo, Swiss albino mice. The method, then: as §3, §4
Superoxide dismutase (SOD), catalase (CAT) activity, glutathione-S-transferase (GST) and reduced glutathione (GSH) levels were assayed according to previously reported methods.

Values after ≈ are worked out from the molar mass of the structure shown. Values joined by “and” are separate entries in the source; they are usually repeats but may differ in a detail not shown here. Equal values may be shown once. Marks after values point to notes of the source that are not given here.

Take `OC[C@@H](O)[C@@H](O)[C@H](O)[C@H](O)CO` [Mannitol, mannitol]: in data set [1], the “Hydroxyl radical (OH) scavenging IC50” value amounted to 571.45 ± 20.12 µg/mL.

Regarding `COC(=O)[C@H]1[C@H]2C[C@@H]3c4[nH]c5cc(OC)ccc5c4CCN3C[C@H]2C[C@@H](OC(=O)c2cc(OC)c(OC)c(OC)c2)[C@@H]1OC` [Reserpine, reserpine], in the data set “WST-1 cytotoxicity assay”, 44.8 ± 2.06 µg/mL (≈ 73.6 µM) corresponded to half-maximal inhibition (IC50 at 48 h). Also, the “cytotoxicity against normal cells (in words)” value (“cytotoxicity … (in words)” below) with WI-38 cells was “most toxic compound”. Moreover, in data set [2], the “in vitro iron chelation ability (in words)” value is listed as “failed to chelate iron” and the “Iron chelating activity IC50” value was found to be 3095.13 ± 438.00 µg/mL.

As for `CC(=O)C(=O)[O-].[Na+]` [Sodium pyruvate, sodium pyruvate], in data set [3], the “Hydrogen peroxide (H2O2) scavenging IC50” value is 3.24 ± 0.30 mg/mL.

Consider `Oc1cc(O)c2c(c1)OC(c1ccc(O)c(O)c1)C(O)C2` (single isomer, unassigned; (+)) [Catechin, (+) catechin], for which the “Cytotoxicity assay IC50” value in the data set on WI-38 cells is 753.56 ± 31.99 µg/mL. Besides, in data set [2], the “in vitro iron chelation ability (in words)” value is “failed to chelate iron” and the “Iron chelating activity IC50” value came to 1940.22 ± 179.61 µg/mL.

Consider `O=c1c(O)c(-c2ccc(O)c(O)c2)oc2cc(O)cc(O)c12` [Quercetin, quercetin], for which, in data set [4], the “Superoxide anion scavenging IC50” value was 42.06 ± 1.35 µg/mL.

On to `COC(=O)c1cc(O)c(O)c(O)c1` [Methyl gallate, methyl gallate], for which the half-inhibitory concentration (IC50) at 48 h in the data set “WST-1 cytotoxicity assay” stood at 344 ± 31.3 µg/mL (≈ 1870 µM). The “Iron chelating activity IC50” value in data set [2] amounted to 70.86 ± 1.20 µg/mL.

For `O=C(O)CCCC[C@@H]1CCSS1` (racemic) [Lipoic acid, lipoic acid], the “Singlet oxygen scavenging IC50” value in data set [5] is 46.16 ± 1.16 µg/mL.

Consider `O=C(O)CN(CCN(CC(=O)O)CC(=O)O)CC(=O)O` [EDTA, Ethylenediamine tetraacetic acid], for which the “Iron chelating activity IC50” value in [2] was determined as 1.27 ± 0.05 µg/mL.

For the molecule `O=C1O[C@H]([C@@H](O)CO)C(O)=C1O` [Ascorbic acid, ascorbic acid], the “Hypochlorous acid (HOCl) scavenging IC50” value in [6] is 235.96 ± 5.75 µg/mL. Further, in data set [7], the “DPPH IC50” value amounted to 5.29 ± 0.28 µg/mL.

In the case of `O=C(O)c1cc(O)c(O)c(O)c1` [Gallic acid, gallic acid], the “Peroxynitrite (ONOO-) scavenging IC50” value in “Peroxynitrite scavenging” was 0.876 ± 0.57 mg/mL.

Regarding `O=C1c2ccccc2C(=O)c2c(O)c(O)cc(O)c21` [Purpurin, purpurin], the midpoint of inhibition in “WST-1 cytotoxicity assay”, the IC50 at 48 h, lay at 1470 ± 291 µg/mL (≈ 5730 µM). In addition, in the data set with WI-38 cells, the “cytotoxicity … (in words)” value is “negligible cytotoxicity”. Also, in data set [2], the “Iron chelating activity IC50” value came out at 252.37 ± 4.08 µg/mL.

As to `O=C(O)c1ccc(-n2nc(-c3ccccc3O)nc2-c2ccccc2O)cc1` [D, desirox], in the data set on iron overloaded mice [8] (change vs B group), the “ALAT % Change” value is 52.79%, the “ALP % Change” value came out at 84.44%, the “ASAT % Change” value is 17.36% and the “Bilirubin % Change” value came out at 10.97%. Besides, in the data set with iron overloaded mice [8] (iron overloaded mice), the ALAT is 23.29 ± 1.09 ^c ^f Unit/l and 23.29 ± 1.09^cf Unit/l; the ALP is 61.01 ± 2.44 ^c ^f Unit/l and 61.01 ± 2.44^cf Unit/l; the ASAT was 79.35 ± 4.36 ^a ^f Unit/l and 79.35 ± 4.36^af Unit/l; the Bilirubin was 1.68 ± 0.15 ^f mg/dl. Also, in the data set on iron overloaded mice [9] (change vs B group), the “CAT % Change” value is reported as 26.09%, the “GSH % Change” value is given as 5.13%, the “GST % Change” value was determined as 35.42% and the “SOD % Change” value is reported as 15.31%. For the same molecule, in the data set with iron overloaded mice [9] (iron overloaded mice), the CAT was 16.14 ± 3.87 ^c ^f Unit/mg protein and 16.14 ± 3.87^cf Unit/mg protein; the GSH is 0.48 ± 0.02 ^a ^f μg/mg protein and 0.48 ± 0.02^af μg/mg protein; the GST was 3.72 ± 0.36 ^c ^f Unit/mg protein and 3.72 ± 0.36^cf Unit/mg protein; the SOD is 0.47 ± 0.05 ^a ^f Unit/mg protein and 0.47 ± 0.05^af Unit/mg protein.

In the data set “WST-1 cytotoxicity assay”, `C[C@@H]1O[C@@H](OC[C@H]2O[C@@H](Oc3c(-c4ccc(O)c(O)c4)oc4cc(O)cc(O)c4c3=O)[C@H](O)[C@@H](O)[C@@H]2O)[C@H](O)[C@H](O)[C@H]1O` [Rutin, rutin] showed a half-inhibitory concentration (IC50) at 48 h of 1230 ± 195 µg/mL (≈ 2020 µM). Also, the “cytotoxicity … (in words)” value with WI-38 cells is recorded as “negligible cytotoxicity”.

Take tannic acid: the “Cytotoxicity assay IC50” value in the data set on WI-38 cells amounted to 581.03 ± 64.97 µg/mL. For the same molecule, in [2], the “in vitro iron chelation ability (in words)” value is reported as “most effective chelator” and the “Iron chelating activity IC50” value turned out to be 50.22 ± 0.85 µg/mL.
